According to US20200163984A1, “USE OF ISOVALERYL SPIRAMYCIN I, II AND/OR III IN MANUFACTURING MEDICAMENT FOR TREATING AND/OR PREVENTING TUMOR, AND MEDICAMENT” (SHENYANG FUYANG PHARMACEUTICAL TECHNOLOGY CO., LTD., priority 2017, published 2020):
Values after ≈ are worked out from the molar mass of the structure shown.

What was measured:
[1] = tested on: transplanted tumor of human gastric adenocarcinoma cell SGC7901; assay: SGC7901 transplanted tumor in nude mice
Description: (§1) Then cell concentration was adjusted to 1×10^7/ml with matrigel, then each nude mouse was inoculated subcutaneously with 0.2 ml of cells at its right armpit and recorded as the first day of inoculation. When the tumor grows to be greater than or equal to 100 mm^3, the mice were randomly divided into 11 groups with 6 mice in each group: a model group, a cyclophosphamide group, isovaleryl spiramycin I groups with doses of 25, 50 and 100 mg/kg, isovaleryl spiramycin II groups with doses of 25, 50 and 100 mg/kg, and isovaleryl spiramycin III groups with doses of 25, 50 and 100 mg/kg. Each group was continuously administered intragastrically for 30 days with a dose of 20 ml/kg. The mice were sacrificed the next day after drug withdrawal and the indicators were tested. The long diameter and short diameter of the tumor, and the body weight of each mouse were recorded every 3 days from drug administration to nude mouse sacrifice.
(§2) The body weight of the nude mice and the long diameter (a) and short diameter (b) of the transplanted tumor were measured every 3 days, and the tumor volume (v), relative tumor volume (RTV) and relative tumor proliferation rate (T/C) are calculated respectively according to the following formulas, wherein V=a×b^2/2; RTV=V/V0 (V0 is the tumor volume before administration, V is the tumor volume before sacrifice), and T/C (%)=treatment group RTV/model control group RTV×100%.
(§3) Each mouse was weighed and sacrificed. After the tumor was completely stripped off from the body of the mouse, the non-tumor tissues such as blood stains and fat were removed to weigh the tumor and calculate the tumor growth inhibition rate. The average tumor weight of each group of mice is used as an indicator of efficacy. Tumor growth inhibition rate (%)=(1−the average tumor weight of the treatment group/the average tumor weight of the model group)×100%.

[2] = tested on: human colon cancer cell HT-29; details: HT-29, MTT, 48 hours
Description: (§4) The purpose of the assay is to evaluate the in vitro cell proliferation inhibition or cytotoxic activity of a tested sample.
(§5) MCF-7, MDA-MB-231, HepG2, A549, H460, H1299, 786-0, 769-P, U251, A172, HeLa, PC3, PANC-1, TE-1, SGC7901, and HT-29 were adherent tumor cells. The adherent tumor cells in the logarithmic growth phase were selected and digested with trypsin, then were prepared into a 4 to 5×10^4/ml cell suspension by a medium containing 10% fetal bovine serum. And the cell suspension was inoculated in a 96-well culture plate, and each well was 100 μL. The 96-well culture plate was cultured at 37° C. and 5% CO2 for 24 hours. The experimental group was replaced with a new culture medium containing different concentrations of the sample to be tested, namely, isovaleryl spiramycin I, isovaleryl spiramycin II, or isovaleryl spiramycin III, while the control group was replaced with a culture medium containing the same volume of solvent. Each group was set up with 3 parallel wells that were cultured at 37° C. and 5% CO2 for 48 hours. After the supernatant was removed, the wells were washed carefully for 3 times with PBS. And 100 μL of freshly prepared culture medium containing 0.5 mg/ml MTT was added to each well for continuous incubation for 4 hours at 37° C. After the supernatant was removed carefully, 150 μL of DMSO was added to each well, and after the material was mixed for 10 minutes with a micro-oscillator, the optical density value was measured at 492 nm with a microplate reader.
(§6) The inhibition rate of the medicament on tumor cell growth is calculated according to the following formula:
(§7) Tumor cell growth inhibition rate (%)=[A492 (negative control)−A492 (dosing group)]/A492 (negative control)×100%
(§8) And the half-inhibitory concentration (IC50) of the sample is determined therefrom.

[3] = tested on: human gastric adenocarcinoma cell SGC7901; details: SGC-7901, MTT, 48 hours
Description: as §4, §5, §6, §7, §8

[4] = tested on: human glioblastoma cell A172; details: A172, MTT, 48 hours
Description: as §4, §5, §6, §7, §8

[5] = tested on: human prostate cancer cell PC3; details: PC3, MTT, 48 hours
Description: as §4, §5, §6, §7, §8

[6] = tested on: human renal cell adenocarcinoma cell 769-P; details: MTT, 48 hours
Description: as §4, §5, §6, §7, §8

[7] = tested on: human non-small cell lung cancer cells A549; details: A549, MTT, 48 hours
Description: as §4, §5, §6, §7, §8

[8] = tested on: transplanted tumor of human non-small cell lung cancer cell A549; assay: A549 transplanted tumor in nude mice; details: for Tumor Volume (mm3) (d 1): d1
Description: as §1, with “A549 cells in a logarithmic growth phase were taken and subjected to a trypan blue exclusion experiment showing that the cell viability was more than 95%, then the cells were subjected to trypsinization, centrifugation, and supernatant removal. Then” for “Then”
as §2, §3

[9] = SGC7901, 12.5 mg/kg (low dose) i.g. 30 days
[10] = SGC7901, 25 mg/kg (medium dose) i.g. 30 days
[11] = SGC7901, 50 mg/kg (high dose) i.g. 30 days
[12] = A549, high dose (100 mg/kg in method) i.g. 30 days
[13] = A549, low dose (25 mg/kg in method) i.g. 30 days
[14] = A549, medium dose (50 mg/kg in method) i.g. 30 days

COC1C(OC(C)=O)CC(=O)OC(C)CC=CC=CC(OC2CCC(N(C)C)C(C)O2)C(C)CC(CC=O)C1OC1OC(C)C(OC2CC(C)(O)C(OC(=O)CC(C)C)C(C)O2)C(N(C)C)C1O (stereo not shown) [Isovaleryl spiramycin II, isovaleryl spiramycin II]
Inhibition Rate (tumor growth inhibition rate) [1, 9]: 24.44%
Relative Tumor Proliferation Rate (T/C) [1, 9]: 70.48%
Relative Tumor Volume (RTV) [1, 9]: 7.90 ± 6.97
Tumor Volume (d 1) [1, 9]: 134.33 ± 57.77 mm3
Tumor Volume (d 30) [1, 9]: 1029.72 ± 818.01 mm3
Tumor Weight [1, 9]: 1.19 ± 0.62 g
Inhibition Rate (tumor growth inhibition rate) [1, 10]: 41.76%
Relative Tumor Proliferation Rate (T/C) [1, 10]: 51.42%
Relative Tumor Volume (RTV) [1, 10]: 6.88 ± 5.66
Tumor Volume (d 1) [1, 10]: 195.76 ± 76.95 mm3
Tumor Volume (d 30) [1, 10]: 1094.82 ± 687.01 mm3
Tumor Weight [1, 10]: 0.91 ± 0.53 g
Inhibition Rate (tumor growth inhibition rate) [1, 11]: 70.24%
Relative Tumor Proliferation Rate (T/C) [1, 11]: 36.95%
Relative Tumor Volume (RTV) [1, 11]: 6.90 ± 7.37
Tumor Volume (d 1) [1, 11]: 143.85 ± 16.25 mm3
Tumor Volume (d 30) [1, 11]: 577.98 ± 411.47 mm3
Tumor Weight [1, 11]: 0.47 ± 0.42 g
tumor volume and relative tumor volume compared with the model group ([1]; SGC7901, low, medium and high doses, P<0.05): significantly lower
mouse weight compared with the model group ([1]; mouse, in vivo): no significant changes
IC50 [2]: 31.05 ± 3.23 µg/mL (≈ 32 µM)
IC50 [3]: 39.14 ± 1.21 µg/mL (≈ 40.4 µM)
IC50 [4]: 33.62 ± 0.57 µg/mL (≈ 34.7 µM)
IC50 [5]: 32.88 ± 0.53 µg/mL (≈ 33.9 µM)
IC50 [6]: 20.61 ± 0.48 µg/mL (≈ 21.3 µM)
IC50 [7]: 36.97 ± 2.92 µg/mL (≈ 38.1 µM)
Relative Tumor Proliferation Rate (T/C) [8, 12]: 39.42%
tumor growth inhibition rate [8, 12]: 60.19%
Relative Tumor Proliferation Rate (T/C) [8, 13]: 83.41%
tumor growth inhibition rate [8, 13]: 20.73%
tumor volume and relative tumor volume compared with the model group ([8]; A549, low, medium and high doses, P<0.05): significantly lower
Relative Tumor Proliferation Rate (T/C) [8, 14]: 58.75%
tumor growth inhibition rate [8, 14]: 31.87%
Inhibition Rate (%) ([8]; A549 nude mice, 25 mg/kg): 20.73%
Relative Tumor Proliferation Rate (T/C) ([8]; A549 nude mice, 25 mg/kg): 83.41%
Relative Tumor Volume (RTV) ([8]; A549 nude mice, 25 mg/kg): 13.54 ± 1.07
Tumor Weight ([8]; A549 nude mice, 25 mg/kg): 1.90 ± 0.31 g
Tumor Volume (mm3) (d 1) ([8]; A549 nude mice, 25 mg/kg): 119.67 ± 7.25 mm3
Tumor Volume (mm3) (d30) ([8]; A549 nude mice, 25 mg/kg): 1614.91 ± 65.26 mm3
Inhibition Rate (%) ([8]; A549 nude mice, 50 mg/kg): 31.87%
Relative Tumor Proliferation Rate (T/C) ([8]; A549 nude mice, 50 mg/kg): 58.75%
Relative Tumor Volume (RTV) ([8]; A549 nude mice, 50 mg/kg): 9.54 ± 2.62
Tumor Weight ([8]; A549 nude mice, 50 mg/kg): 1.63 ± 0.32 g
Tumor Volume (mm3) (d 1) ([8]; A549 nude mice, 50 mg/kg): 117.96 ± 4.88 mm3
Tumor Volume (mm3) (d30) ([8]; A549 nude mice, 50 mg/kg): 1129.10 ± 326.54 mm3
Inhibition Rate (%) ([8]; A549 nude mice, 100 mg/kg): 60.19%
Relative Tumor Proliferation Rate (T/C) ([8]; A549 nude mice, 100 mg/kg): 47.94%
Relative Tumor Volume (RTV) ([8]; A549 nude mice, 100 mg/kg): 7.78 ± 2.03
Tumor Weight ([8]; A549 nude mice, 100 mg/kg): 0.95 ± 0.42 g
Tumor Volume (mm3) (d 1) ([8]; A549 nude mice, 100 mg/kg): 116.96 ± 6.56 mm3
Tumor Volume (mm3) (d30) ([8]; A549 nude mice, 100 mg/kg): 917.10 ± 270.86 mm3
mouse weight compared with the model group ([8]; mouse, in vivo): no significant changes
Body Weight (g) (d1) ([8]; mouse, in vivo, 25 mg/kg): 20.91 ± 1.07 g
Body Weight (g) (d30) ([8]; mouse, in vivo, 25 mg/kg): 21.32 ± 1.88 g
Body Weight (g) (d1) ([8]; mouse, in vivo, 50 mg/kg): 20.03 ± 1.88 g
Body Weight (g) (d30) ([8]; mouse, in vivo, 50 mg/kg): 12.92 ± 1.68 g
Body Weight (g) (d1) ([8]; mouse, in vivo, 100 mg/kg): 21.71 ± 1.94 g
Body Weight (g) (d30) ([8]; mouse, in vivo, 100 mg/kg): 12.42 ± 1.37 g
